Assay results as given in US20230148450A9, “BICYCLIC HETEROARYL COMPOUNDS AND USES THEREOF” (Revolution Medicines, Inc., priority 2019, published 2023).

Legend:
[1] = molecular target: T1, SOS1 nucleotide exchange of KRAS (catalytic domain of SOS1, residues 564-1049; wild-type KRAS) (Homo sapiens, UniProt Q07889); assay: Mode of Action Assay: Inhibition of SOS1 Nucleotide Exchange Activity (TR-FRET); format: biochemical; settings: TR-FRET signal
T1 construct: tagless catalytic domain of SOS1 (residues 564-1049)
T1 sequence (Q07889 564-1049): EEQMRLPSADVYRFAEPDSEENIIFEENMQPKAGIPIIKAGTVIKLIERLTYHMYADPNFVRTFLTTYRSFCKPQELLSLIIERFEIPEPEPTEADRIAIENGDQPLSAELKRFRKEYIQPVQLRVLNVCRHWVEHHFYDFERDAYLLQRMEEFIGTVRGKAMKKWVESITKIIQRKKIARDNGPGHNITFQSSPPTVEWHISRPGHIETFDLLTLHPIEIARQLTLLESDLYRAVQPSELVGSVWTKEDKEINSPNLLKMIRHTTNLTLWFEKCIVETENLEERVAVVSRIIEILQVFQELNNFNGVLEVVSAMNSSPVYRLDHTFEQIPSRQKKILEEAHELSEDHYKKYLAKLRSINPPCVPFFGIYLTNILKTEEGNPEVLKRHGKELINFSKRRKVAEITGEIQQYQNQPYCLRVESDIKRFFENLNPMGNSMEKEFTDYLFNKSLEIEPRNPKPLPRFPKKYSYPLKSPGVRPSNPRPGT
Description: The purpose of this assay was to characterize the inhibitory activity of compounds on SOS1 nucleotide exchange of KRAS. Data was reported as IC50 values based on the TR-FRET signal.
Note—the following protocol describes a procedure for monitoring the inhibition of SOS1 nucleotide exchange activity of wild-type KRAS in response to a compound of the invention. Other KRAS mutants and RAS isoforms maybe employed.
In assay buffer containing 20 mM HEPES, pH 7.5, 150 mM NaCl, 5 mM MgCl2, 0.05% Tween-20, 0.1% BSA, 1 mM DTT, concentration series of test compounds were generated spanning 100 μM to 1.7 nM over eleven 3-fold serial dilutions in a 384-well assay plate at a volume of 20 μL. The purified tagless catalytic domain of SOS1 (residues 564-1049) was first diluted in assay buffer at a concentration of 100 nM, and then 20 μL of the SOS1 containing solution was directly dispensed into compound plates. The SOS1/compound mixture was incubated at room temperature with constant mixing on an orbital shaker for 20 minutes to allow the reaction to reach equilibrium. A KRAS mixture was prepared by diluting 66.7 nM avi-tagged KRAS (residue 1-169), 3.33 nM Streptavidin-Tb and 333 nM EDA-GTP-DY-647P1 in assay buffer. This mixture was prepared immediately before addition to the SOS1/compound mixture to prevent intrinsic nucleotide exchange. Then 5 μL of the pre-incubated SOS1/compound mixture and 7.5 μL of the KRAS mixture were added sequentially in a 384-well low volume black round bottom plate and incubated at room temperature with constant shaking for 30 minutes. Time-resolved fluorescence was measured on a PerkinElmer Envision plate reader. DMSO and 10 μM of compound (i) were used as negative and positive controls, respectively.
Three replicates were performed for each compound. Data were normalized by the following: (Positive control—Sample signal)/(Positive control—negative control)*100. The data were fit using a four-parameter logistic fit.

[2] = system: cellular pERK in PC-9 cells (EGFR Ex19Del); assay: Potency Assay: pERK; format: cell-based; settings: Homo sapiens; PC-9 cells (EGFR Ex19Del), 1 hour incubation, AlphaLISA p-ERK1/2; read-out: SOS1 pERK IC50
Description: The purpose of this assay is to measure the ability of test compounds to inhibit SOS1 function in cells. SOS1 activates RAS proteins by catalyzing the conversion of […] to […] in response to receptor tyrosine kinase activation. Activation of RAS induces a sequence of cellular signaling events that results in increased phosphorylation of ERK at […] (pERK). The procedure described below measures the level of cellular pERK in response to test compounds in PC-9 cells (EGFR Ex[…]). PC-9 cells were grown and maintained using media and procedures recommended by the ATCC. On the day prior to compound addition, cells were plated in 384-well cell culture plates (40 μL/well) and grown overnight in a 37° C., 5% CO2 incubator. Test compounds were prepared in 10, 3-fold dilutions in DMSO, with a top concentration of 10 mM. On the day of the assay, 40 nL of test compound was added to each well of cell culture plate using an Echo550 liquid handler (LabCyte). Concentrations of test compound were tested in duplicate with highest test concentration being 10 μM. After compound addition, cells were incubated for 1 hour at 37° C., 5% CO2. Following incubation, culture medium was removed and cells were washed once with phosphate buffered saline. Cellular pERK level was determined using the AlphaLISA SureFire Ultra p-ERK1/2 Assay Kit (PerkinElmer). Cells were lysed in 25 μL lysis buffer, with shaking at 600 RPM at room temperature for 15 minutes. Lysate (10 μL) was transferred to a 384-well Opti-plate (PerkinElmer) and 5 μL acceptor mix was added. The plate was centrifuged at 1000 RPM for 1 minute, and incubated in the dark for 2 hours. Following this incubation, 5 μL of donor mix was added, the plate was sealed and centrifuged at 1000 RPM for 1 minute, and the mixture was incubated for 2 hours at room temperature. Signal was read on an Envision plate reader (PerkinElmer) using standard AlphaLISA settings. Analysis of raw data was carried out in Excel (Microsoft) and Prism (GraphPad). Signal was plotted vs. the decadal logarithm of compound concentration, and IC50 was determined by fitting a 4-parameter sigmoidal concentration response model.

[3] = molecular target: T2, SOS1 catalytic domain (residues 564-1049) (Homo sapiens, UniProt Q07889); assay: Binding affinity to SOS1 using Surface Plasmon Resonance (SPR); settings: avi-tagged SOS1 catalytic domain immobilized on sensor chip; read-out: SOS1 SPR Equilibrium Kd
T2 construct: SOS1 catalytic domain (residues 564-1049) immobilized on a sensor chip
T2 sequence (Q07889 564-1049): T1 sequence (Q07889 564-1049)
Description: Potency Assay: Measurement of the Binding Affinity of Compounds of the Invention to SOS! using Surface Plasmon Resonance (SPR)
The purpose of the SPR assay was to measure the direct binding of compounds to SOS1 catalytic domain (residues 564-1049) immobilized on a sensor chip. Data was reported as equilibrium dissociation constant (Kd) values.
Using a GE Biacore 8K SPR instrument, avi-tagged SOS1 catalytic domain protein was immobilized to a level of approximately 6000 response units (RU) on a streptavidin-coated SPR sensor chip in assay buffer containing 0.01 M HEPES, 0.15 M NaCl and 0.05% v/v Surfactant P20. In assay buffer containing 2% DMSO, concentration series of test compounds were generated spanning 5 μM to 4.9 nM over ten 2-fold dilutions. For each test compound, a separate 0 μM sample was generated for use during subsequent double reference subtraction. Serially for each test compound, individual dilution samples were flowed over the immobilized SOS1 protein at a flow rate of 50 μL/minute to monitor the association with SOS1. Dissociation of bound test compound from the SOS1 protein was immediately monitored by flowing assay buffer over the sensor surface and monitoring the decrease in binding signal back to the baseline level seen in the absence of compound. This was repeated for all compound dilutions in each series. The binding level response for each test compound concentration was noted immediately prior to the end of the association phase, and a secondary plot generated showing binding response level versus test compound concentration generated for each compound dilution series.

SMILES	IC50 [1]	IC50 [2]	Kd [3]
Cc1nc(N[C@H](C)c2cc(N)cc(C(F)(F)F)c2)c2cc(C(=O)N3CCN(C)CC3)cn2n1 [Example 36, (R)-(4-((1-(3-amino-5-(trifluoromethyl)phenyl)ethyl)amino)-2-methylpyrrolo[2,1-f][1,2,4]triazin-6-yl)(4-methylpiperazin-1-yl)methanone]	< 1000 nM	< 1000 nM	≤ 400 nM
Cc1nc(N[C@H](C)c2cc(N)cc(C(F)(F)F)c2)c2cc(C(=O)N3CCN(C)CC3)n(C)c2n1 [Example 37, [4-[[(1R)-1-[3-amino-5-(trifluoromethyl)phenyl]ethyl]amino]-2,7-dimethyl-pyrrolo[2,3-d]pyrimidin-6-yl]-(4-methylpiperazin-1-yl)methanone]	> 1000 nM	> 1000 nM	> 400 nM
C[C@@H](Nc1nc(Cl)nc2c1cc(C1=CCNCC1)n2C)c1cc(N)cc(C(F)(F)F)c1 [Example 39, N-[(1R)-1-[3-amino-5-(trifluoromethyl)phenyl]ethyl]-2-chloro-7-methyl-6-(1,2,3,6-tetrahydropyridin-4-yl)pyrrolo[2,3-d]pyrimidin-4-amine]	> 1000 nM	> 1000 nM	≤ 400 nM
CNCc1ccccc1-c1ccc(C(C)Nc2nc(C)nn3cc(C4=CCNCC4)cc23)s1 (stereo not drawn) [Example 40, 2-methyl-N-[1-[5-[2-(methylaminomethyl)phenyl]-2-thienyl]ethyl]-6-(1,2,3,6-tetrahydropyridin-4-yl)pyrrolo[2,1-f][1,2,4]triazin-4-amine]	> 1000 nM	> 1000 nM	≤ 400 nM
Cc1nc(N[C@H](C)c2cc(N)cc(C(F)(F)F)c2)c2cc(C(=O)N3CCOCC3)cn2n1 [Example 41, [4-[[(1R)-1-[3-amino-5-(trifluoromethyl)phenyl]ethyl]amino]-2-methyl-pyrrolo[2,1-f][1,2,4]triazin-6-yl]morpholino-methanone]	< 1000 nM	< 1000 nM	≤ 400 nM
C[C@@H](Nc1ncnc2sc(C(=O)N3CCOCC3)nc12)c1cc(N)cc(C(F)(F)F)c1 [Example 42, [7-[[(1R)-1-[3-amino-5-(trifluoromethyl)phenyl]ethyl]amino]thiazolo[5,4-d]pyrimidin-2-yl]-morpholino-methanone]	< 1000 nM	< 1000 nM	≤ 400 nM
C[C@@H](Nc1ncnn2cc(N3CCOCC3)cc12)c1cc(N)cc(C(F)(F)F)c1 [Example 47, N-[(1R)-1-[3-amino-5-(trifluoromethyl)phenyl]ethyl]-6-morpholino-pyrrolo[2,1-f][1,2,4]triazin-4-amine]	> 1000 nM	> 1000 nM	> 400 nM
C[C@@H](Nc1ncnn2cc(C(=O)N3CCOCC3)cc12)c1cc(N)cc(C(F)(F)F)c1 [Example 50, N-[(1R)-1-[3-amino-5-(trifluoromethyl)phenyl]ethyl]-6-(morpholine-4-carbonyl)pyrrolo[2,1-f][1,2,4]triazin-4-amine]	< 1000 nM	< 1000 nM	> 400 nM
C[C@@H](Nc1nc(Cl)nc2cc(C(=O)N3CCOCC3)[nH]c12)c1cc(N)cc(C(F)(F)F)c1 [Example 51, N-[(1R)-1-[3-amino-5-(trifluoromethyl)phenyl]ethyl]-2-chloro-6-(morpholine-4-carbonyl)-5H-pyrrolo[3,2-d]pyrimidin-4-amine]	> 1000 nM	> 1000 nM	> 400 nM
C[C@@H](Nc1nccn2nc(C3=CCNCC3)nc12)c1cc(N)cc(C(F)(F)F)c1 [Example 53, N-[(1R)-1-[3-amino-5-(trifluoromethyl)phenyl]ethyl]-2-(1,2,3,6-tetrahydropyridin-4-yl)-[1,2,4]triazolo[1,5-a]pyrazin-8-amine]	> 1000 nM	> 1000 nM	≤ 400 nM
C[C@@H](Nc1ncnc2[nH]c(C(=O)N3CCOCC3)nc12)c1cc(N)cc(C(F)(F)F)c1 [Example 57, N-[(1R)-1-[3-amino-5-(trifluoromethyl)phenyl]ethyl]-8-(morpholine-4-carbonyl)-9H-purin-6-amine]	< 1000 nM	< 1000 nM	≤ 400 nM
C[C@@H](Nc1ncnc2sc(C(=O)N3CCOCC3)cc12)c1cc(N)cc(C(F)(F)F)c1 [Example 65, N-[(1R)-1-[3-amino-5-(trifluoromethyl)phenyl]ethyl]-6-(morpholine-4-carbonyl)thieno[2,3-d]pyrimidin-4-amine]	< 1000 nM	< 1000 nM	≤ 400 nM
C[C@@H](Nc1ncnn2cc(C(=O)N3CCN(C)CC3)cc12)c1cccc(C(F)F)c1F [Example 69]	< 1000 nM	< 1000 nM	≤ 400 nM
C[C@@H](Nc1ncnn2cc(C(=O)N3CC4(CN(C)C4)C3)cc12)c1cccc(C(F)F)c1F [Example 70]	< 1000 nM	< 1000 nM	≤ 400 nM
C[C@@H](Nc1ncnn2cc(C(=O)N3CC4(COC4)C3)cc12)c1cccc(C(F)F)c1F [Example 71]	< 1000 nM	< 1000 nM	≤ 400 nM
C[C@@H](Nc1ncnn2cc(C(=O)N3CC4(C3)CN(C3COC3)C4)cc12)c1cccc(C(F)F)c1F [Example 72]	< 1000 nM	< 1000 nM	≤ 400 nM
